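GI50 marks 50% less growth. Definition used: TGI = concentration required for complete inhibition of growth.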
Legend:
Assay in all cases: growth of human tumour cells (NCI), 384-well format
NCI-H23 lung = tested on: NCI-H23 lung
NCI-H322M lung = tested on: NCI-H322M lung
NCI-H460 NSCLC = tested on: NCI-H460 NSCLC
NCI-H522 lung = tested on: NCI-H522 lung
NCI/ADR-RES ovarian = tested on: NCI/ADR-RES ovarian
OVCAR-3 ovarian = tested on: OVCAR-3 ovarian
OVCAR-4 ovarian = tested on: OVCAR-4 ovarian
OVCAR-5 ovarian = tested on: OVCAR-5 ovarian
OVCAR-8 ovarian = tested on: OVCAR-8 ovarian
PC-3 prostate = tested on: PC-3 prostate
RPMI-8226 leukemia = tested on: RPMI-8226 leukemia
RXF 393 renal = tested on: RXF 393 renal
SF-268 CNS = tested on: SF-268 CNS
SF-295 CNS = tested on: SF-295 CNS
SF-539 CNS = tested on: SF-539 CNS
SK-MEL-2 melanoma = tested on: SK-MEL-2 melanoma
SK-MEL-28 melanoma = tested on: SK-MEL-28 melanoma
SK-MEL-5 melanoma = tested on: SK-MEL-5 melanoma
SK-OV-3 ovarian = tested on: SK-OV-3 ovarian
SN12C renal = tested on: SN12C renal
SNB-19 CNS = tested on: SNB-19 CNS
SR leukemia = tested on: SR leukemia
SW-620 colon = tested on: SW-620 colon
T-47D breast = tested on: T-47D breast
TK-10 renal = tested on: TK-10 renal
U251 glioblastoma = tested on: U251 glioblastoma
UACC-257 melanoma = tested on: UACC-257 melanoma
UACC-62 melanoma = tested on: UACC-62 melanoma
UO-31 renal = tested on: UO-31 renal

SMILES: C=C(F)C(=O)N1CCN(c2nc(OC[C@@H]3CCCN3C)nc3c2CCN(c2cccc4cccc(Cl)c24)C3)C[C@@H]1CC#N
- GI50 (NCI-H23 lung): < 10 nM
- GI50 (NCI-H322M lung): 1270 nM
- TGI (NCI-H322M lung): 2590 nM
- GI50 (NCI-H460 NSCLC): 414 nM
- TGI (NCI-H460 NSCLC): 1390 nM
- GI50 (NCI-H522 lung): 255 nM
- TGI (NCI-H522 lung): 861 nM
- GI50 (NCI/ADR-RES ovarian): 411 nM
- TGI (NCI/ADR-RES ovarian): 1440 nM
- GI50 (OVCAR-3 ovarian): 657 nM
- TGI (OVCAR-3 ovarian): 1880 nM
- GI50 (OVCAR-4 ovarian): 853 nM
- TGI (OVCAR-4 ovarian): 2120 nM
- GI50 (OVCAR-5 ovarian): 386 nM
- TGI (OVCAR-5 ovarian): 1190 nM
- GI50 (OVCAR-8 ovarian): 405 nM
- TGI (OVCAR-8 ovarian): 1360 nM
- GI50 (PC-3 prostate): 723 nM
- TGI (PC-3 prostate): 2010 nM
- GI50 (RPMI-8226 leukemia): 165 nM
- TGI (RPMI-8226 leukemia): 491 nM
- GI50 (RXF 393 renal): 379 nM
- TGI (RXF 393 renal): 1560 nM
- GI50 (SF-268 CNS): 542 nM
- TGI (SF-268 CNS): 1660 nM
- GI50 (SF-295 CNS): 1480 nM
- TGI (SF-295 CNS): 2810 nM
- GI50 (SF-539 CNS): 472 nM
- TGI (SF-539 CNS): 1520 nM
- GI50 (SK-MEL-2 melanoma): 484 nM
- TGI (SK-MEL-2 melanoma): 1630 nM
- GI50 (SK-MEL-28 melanoma): 1130 nM
- TGI (SK-MEL-28 melanoma): 2360 nM
- GI50 (SK-MEL-5 melanoma): 564 nM
- TGI (SK-MEL-5 melanoma): 1810 nM
- GI50 (SK-OV-3 ovarian): 1070 nM
- TGI (SK-OV-3 ovarian): 2280 nM
- GI50 (SN12C renal): 1200 nM
- TGI (SN12C renal): 2440 nM
- GI50 (SNB-19 CNS): 745 nM
- TGI (SNB-19 CNS): 1960 nM
- GI50 (SR leukemia): 134 nM
- TGI (SR leukemia): 512 nM
- GI50 (SW-620 colon): 1120 nM
- TGI (SW-620 colon): 2350 nM
- GI50 (T-47D breast): 430 nM
- TGI (T-47D breast): 1900 nM
- GI50 (TK-10 renal): 925 nM
- TGI (TK-10 renal): 2160 nM
- GI50 (U251 glioblastoma): 285 nM
- TGI (U251 glioblastoma): 994 nM
- GI50 (UACC-257 melanoma): 749 nM
- TGI (UACC-257 melanoma): 2020 nM
- GI50 (UACC-62 melanoma): 692 nM
- TGI (UACC-62 melanoma): 1910 nM
- GI50 (UO-31 renal): 1150 nM
- TGI (UO-31 renal): 2370 nM
